Test results as given in paper PMC5865651, “Novel inhibitor candidates of TRPV2 prevent damage of dystrophic myocytes and ameliorate against dilated cardiomyopathy in a hamster model” (Oncotarget, 2018).

Target: T1, human Cav1.2/β2/α2δ1 L-type calcium channel (Homo sapiens, UniProt Q13936)
T1 construct: host or cells: CHO cells (purchased recombinant cell line)
Experiment: L-type Ca2+ current in human Cav1.2/β2/α2δ1 expressing CHO cells (patch clamp)
Assay type: cell-based
Conditions: CHO cells expressing human Cav1.2/β2/α2δ1 calcium channel, pH 7.4, 15 μM lumin, n = 3, read-out: L-type current, % of control
Experimental: Figure 8 Effect of lumin on the Ca^2+ response and channel activity in HEK293 cells expressing mTRPV2 (A) Inhibition of the 2-APB-induced increase in [Ca^2+]i in HEK293 cells expressing mTRPV2 by lumin. Cells were loaded with fura-2-AM and stimulated with 2-APB (0.3 mM) in the absence or presence of the indicated concentrations of lumin. The fluorescence ratio was measured by a microplate reader and normalized by the maximal value. Data are shown as mean ± SD (n = 5). (B) Lumin blocked the mTRPV2 channel. The current values at −100 mV measured by an every-2-second ramp protocol were plotted. After the current activated by 200 μM 2-APB at pH 6.5 became stable, a mixture of 15 μM lumin and 2-APB was applied to the cells. (C) Effect of lumin on the current-voltage relationship of 2-APB-evoked current. (D) Concentration-dependence of lumin for the inhibition of mTRPV2 current. Data are shown as mean ± SD (n = 3–5) (E) Effect of lumin (15 μM) on L-type Ca^2+ channel activity. The current waveforms of the control cells and the cells 11 minutes after application of 15 μM lumin were superimposed. […]
For the measurement of L-type Ca^2+ currents, human Cav1.2/β2/α2δ1 calcium channel expressing CHO cells were purchased from ChanTest (Cleveland, OH, USA). […] The data were analysed and plotted with Clampfit 9 (Molecular Devices, LLC, Sunnyvale, CA, USA). […]

T1 sequence (Q13936 whole entry): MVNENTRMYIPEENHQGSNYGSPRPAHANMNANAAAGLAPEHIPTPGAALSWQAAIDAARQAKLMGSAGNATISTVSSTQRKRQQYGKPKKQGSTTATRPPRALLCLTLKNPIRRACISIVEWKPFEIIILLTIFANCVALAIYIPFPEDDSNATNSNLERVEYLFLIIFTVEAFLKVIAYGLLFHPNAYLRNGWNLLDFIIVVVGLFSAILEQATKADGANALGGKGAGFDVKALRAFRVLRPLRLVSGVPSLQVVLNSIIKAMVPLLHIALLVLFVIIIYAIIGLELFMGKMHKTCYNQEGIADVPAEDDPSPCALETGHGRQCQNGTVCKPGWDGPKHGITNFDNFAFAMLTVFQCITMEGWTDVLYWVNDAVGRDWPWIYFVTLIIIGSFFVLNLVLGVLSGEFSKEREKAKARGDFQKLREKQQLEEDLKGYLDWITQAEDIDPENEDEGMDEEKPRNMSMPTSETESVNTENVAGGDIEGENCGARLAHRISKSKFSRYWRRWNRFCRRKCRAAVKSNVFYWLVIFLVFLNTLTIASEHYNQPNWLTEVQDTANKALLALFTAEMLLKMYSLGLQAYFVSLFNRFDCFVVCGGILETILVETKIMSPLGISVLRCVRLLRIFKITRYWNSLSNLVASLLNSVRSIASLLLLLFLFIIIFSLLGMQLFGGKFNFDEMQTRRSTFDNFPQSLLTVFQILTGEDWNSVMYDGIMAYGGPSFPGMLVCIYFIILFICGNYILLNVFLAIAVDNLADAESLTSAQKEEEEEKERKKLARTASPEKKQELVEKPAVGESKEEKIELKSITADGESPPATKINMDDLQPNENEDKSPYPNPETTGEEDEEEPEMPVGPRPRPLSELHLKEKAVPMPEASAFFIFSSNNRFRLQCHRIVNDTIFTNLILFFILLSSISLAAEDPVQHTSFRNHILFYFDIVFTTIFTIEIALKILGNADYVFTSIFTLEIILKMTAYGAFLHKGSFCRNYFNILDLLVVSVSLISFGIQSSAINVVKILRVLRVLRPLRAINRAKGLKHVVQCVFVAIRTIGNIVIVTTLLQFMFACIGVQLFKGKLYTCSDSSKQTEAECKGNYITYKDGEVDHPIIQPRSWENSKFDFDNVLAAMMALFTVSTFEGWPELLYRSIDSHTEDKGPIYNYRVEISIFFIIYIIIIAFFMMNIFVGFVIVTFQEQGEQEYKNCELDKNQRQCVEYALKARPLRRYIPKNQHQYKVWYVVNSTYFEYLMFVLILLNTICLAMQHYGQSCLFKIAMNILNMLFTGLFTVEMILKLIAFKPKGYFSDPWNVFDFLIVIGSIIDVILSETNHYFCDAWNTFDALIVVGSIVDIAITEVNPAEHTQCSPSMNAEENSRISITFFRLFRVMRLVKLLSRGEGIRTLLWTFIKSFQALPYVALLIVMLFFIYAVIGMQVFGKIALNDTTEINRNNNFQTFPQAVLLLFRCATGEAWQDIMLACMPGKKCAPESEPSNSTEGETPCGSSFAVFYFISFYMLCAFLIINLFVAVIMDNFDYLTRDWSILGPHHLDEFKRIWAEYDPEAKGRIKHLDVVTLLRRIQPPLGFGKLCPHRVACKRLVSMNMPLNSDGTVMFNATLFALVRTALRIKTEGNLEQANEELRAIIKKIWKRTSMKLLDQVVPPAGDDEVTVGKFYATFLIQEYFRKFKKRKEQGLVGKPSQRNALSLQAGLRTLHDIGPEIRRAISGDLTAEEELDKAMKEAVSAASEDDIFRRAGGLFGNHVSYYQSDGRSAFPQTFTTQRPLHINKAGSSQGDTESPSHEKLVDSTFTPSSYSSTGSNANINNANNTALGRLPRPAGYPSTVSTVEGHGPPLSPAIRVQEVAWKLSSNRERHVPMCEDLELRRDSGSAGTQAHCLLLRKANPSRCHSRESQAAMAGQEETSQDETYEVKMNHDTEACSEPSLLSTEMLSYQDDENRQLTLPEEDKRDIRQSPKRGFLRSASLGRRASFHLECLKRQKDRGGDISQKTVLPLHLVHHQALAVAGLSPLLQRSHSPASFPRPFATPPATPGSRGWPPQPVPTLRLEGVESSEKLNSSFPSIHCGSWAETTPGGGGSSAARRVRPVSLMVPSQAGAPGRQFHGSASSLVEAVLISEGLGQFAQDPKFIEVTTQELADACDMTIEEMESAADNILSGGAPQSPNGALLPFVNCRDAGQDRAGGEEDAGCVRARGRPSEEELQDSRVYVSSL
T1 sequence (Q08289 whole entry partner): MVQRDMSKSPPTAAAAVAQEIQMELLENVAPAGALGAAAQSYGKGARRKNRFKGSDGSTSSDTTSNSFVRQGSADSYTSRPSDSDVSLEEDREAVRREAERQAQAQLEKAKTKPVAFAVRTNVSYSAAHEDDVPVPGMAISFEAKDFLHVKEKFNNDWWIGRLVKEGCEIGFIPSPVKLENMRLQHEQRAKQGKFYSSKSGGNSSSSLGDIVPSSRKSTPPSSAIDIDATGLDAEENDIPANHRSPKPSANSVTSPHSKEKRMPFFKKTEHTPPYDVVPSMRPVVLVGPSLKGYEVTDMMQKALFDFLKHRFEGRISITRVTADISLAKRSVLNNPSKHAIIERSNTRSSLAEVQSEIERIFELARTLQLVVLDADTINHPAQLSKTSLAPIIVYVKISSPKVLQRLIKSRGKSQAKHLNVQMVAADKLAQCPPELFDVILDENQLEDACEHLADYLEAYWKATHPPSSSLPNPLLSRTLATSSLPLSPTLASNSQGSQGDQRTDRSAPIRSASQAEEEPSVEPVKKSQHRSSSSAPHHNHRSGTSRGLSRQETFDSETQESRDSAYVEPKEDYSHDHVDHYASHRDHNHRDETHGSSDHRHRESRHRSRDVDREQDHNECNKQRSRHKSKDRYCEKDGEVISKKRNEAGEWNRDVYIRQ
T1 sequence (P54289 25-956 partner limits assumed): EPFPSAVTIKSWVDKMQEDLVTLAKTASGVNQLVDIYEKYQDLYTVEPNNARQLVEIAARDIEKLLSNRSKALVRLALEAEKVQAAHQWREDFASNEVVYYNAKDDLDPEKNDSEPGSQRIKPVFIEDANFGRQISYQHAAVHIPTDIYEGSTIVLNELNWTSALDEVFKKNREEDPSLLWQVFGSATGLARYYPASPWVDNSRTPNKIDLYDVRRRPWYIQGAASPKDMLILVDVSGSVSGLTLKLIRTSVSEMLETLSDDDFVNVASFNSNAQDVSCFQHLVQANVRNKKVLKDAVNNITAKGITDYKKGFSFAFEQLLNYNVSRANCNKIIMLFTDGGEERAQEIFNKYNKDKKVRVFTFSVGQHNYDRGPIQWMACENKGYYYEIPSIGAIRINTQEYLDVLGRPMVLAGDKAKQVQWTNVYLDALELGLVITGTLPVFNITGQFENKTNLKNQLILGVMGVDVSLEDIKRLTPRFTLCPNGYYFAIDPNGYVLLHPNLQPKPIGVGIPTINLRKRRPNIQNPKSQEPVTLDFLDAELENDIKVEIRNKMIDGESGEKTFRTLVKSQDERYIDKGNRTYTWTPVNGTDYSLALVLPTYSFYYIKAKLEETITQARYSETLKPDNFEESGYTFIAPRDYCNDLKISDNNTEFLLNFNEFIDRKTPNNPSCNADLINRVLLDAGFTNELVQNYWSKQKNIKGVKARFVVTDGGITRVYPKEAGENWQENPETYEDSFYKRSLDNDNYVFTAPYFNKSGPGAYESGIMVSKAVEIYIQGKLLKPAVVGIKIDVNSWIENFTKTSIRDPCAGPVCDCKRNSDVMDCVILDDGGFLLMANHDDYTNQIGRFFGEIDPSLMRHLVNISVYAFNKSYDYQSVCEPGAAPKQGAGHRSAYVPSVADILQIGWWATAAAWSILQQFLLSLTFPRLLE
T1 sequence (P54289 957-1103 partner limits assumed): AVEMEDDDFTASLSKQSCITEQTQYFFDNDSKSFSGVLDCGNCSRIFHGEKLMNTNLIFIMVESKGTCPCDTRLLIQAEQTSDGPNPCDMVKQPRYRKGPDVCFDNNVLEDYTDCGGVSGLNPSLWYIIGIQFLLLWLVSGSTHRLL

## CCN1C=CC(=CC=C(C=Cc2cc[n+](CC)c3ccccc23)c2cc[n+](CC)c3ccccc23)c2ccccc21.[I-].[I-] [lumin, 4,4′-[3-[2-[1-ethyl-4(1H)-quinolinylidene]ethylidene]-1-propene-1,3-diyl]bis(1-ethylquinolinium) diiodide]
  activity at 11 min, 15 μM: 96.6 ± 8.7%
